The text below walks through data of patent publication US7196100B2, “Opioid receptor antagonists” (Eli Lilly and Company, priority 2004, dated 2007).

Assay type in all cases: biochemical
The target in one test is mu opioid receptor (MOR) (Homo sapiens, UniProt P35372). Nature of the test: GTP-γ-S Binding Assay (SPA-based), antagonist mode vs DAMGO. The conditions noted are these: In vitro antagonism; agonist DAMGO 1 micromolar; Kb by Cheng-Prusoff equation. The method, then: (§1) An SPA—based GTP-γ-S assay format was developed based on previous opioid (Emmerson et al., J. Pharm Exp Ther 278, 1121, 1996; Horng et al., Society for Neuroscience Abstracts, 434.6, 2000) and muscarinic (DeLapp et al., JPET 289, 946, 1999) assay formats. Membranes were re-suspended in 20 mM HEPES, 100 mM NaCl, 5 mM MgCl2, 1 mM DTT, and 1 mM EDTA. Fifty (50) […] of GTP-γ-[35S], compound, membrane suspension (20 microgram/well), and wheat germ agglutinin coated SPA beads (1 mg/well) were added to clear bottom 96 well assay plates. GDP ([…]) was added to the membrane solution prior to addition to the assay plates. Plates were sealed and incubated for four hours at room temperature then placed in a refrigerator overnight to allow the beads to settle. Signal stability at 4° C. was determined to be >60 hours. Plates were warmed to room temperature and counted in a Wallac Microbeta scintillation counter. For antagonist assays, specific agonists were added at the following concentrations: (MOR) DAMGO 1 micromolar, (DOR) DPDPE 30 nM, (KOR) U69593 300 nM. Kb's were determined by Cheng-Prusoff equation (see Cheng and Prusoff, Biochem. Pharmacol. 22, 3099, 1973).
Chain of mu opioid receptor (MOR) (P35372 whole entry): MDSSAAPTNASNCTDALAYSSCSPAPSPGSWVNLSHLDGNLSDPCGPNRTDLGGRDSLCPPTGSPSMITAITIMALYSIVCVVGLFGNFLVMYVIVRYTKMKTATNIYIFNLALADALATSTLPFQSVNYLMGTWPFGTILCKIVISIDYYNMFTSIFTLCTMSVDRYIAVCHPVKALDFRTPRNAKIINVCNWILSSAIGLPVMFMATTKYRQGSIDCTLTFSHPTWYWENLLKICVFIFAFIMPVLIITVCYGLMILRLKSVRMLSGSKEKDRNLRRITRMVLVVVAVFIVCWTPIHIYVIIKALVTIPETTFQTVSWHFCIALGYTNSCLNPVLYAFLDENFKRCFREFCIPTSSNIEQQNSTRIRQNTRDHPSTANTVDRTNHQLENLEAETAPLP

Test [1] concerns the target kappa opioid receptor (KOR) (Homo sapiens, UniProt P41145). The test can be described thus: GTP-γ-S Binding Assay (SPA-based), antagonist mode vs U69593. As to conditions: In vitro antagonism; agonist U69593 300 nM; Kb by Cheng-Prusoff equation. Here is the method:
as §1

For test [2], the target named is delta opioid receptor (DOR) (Homo sapiens, UniProt P41143). The test can be described thus: GTP-γ-S Binding Assay (SPA-based), antagonist mode vs DPDPE. The conditions noted are these: In vitro antagonism; agonist DPDPE 30 nM; Kb by Cheng-Prusoff equation. The method, then:
as §1

What is called Kb is the equilibrium dissociation constant of an antagonist, usually derived from a functional assay. A low value points to higher antagonist affinity.

Chain of delta opioid receptor (DOR) (P41143 whole entry): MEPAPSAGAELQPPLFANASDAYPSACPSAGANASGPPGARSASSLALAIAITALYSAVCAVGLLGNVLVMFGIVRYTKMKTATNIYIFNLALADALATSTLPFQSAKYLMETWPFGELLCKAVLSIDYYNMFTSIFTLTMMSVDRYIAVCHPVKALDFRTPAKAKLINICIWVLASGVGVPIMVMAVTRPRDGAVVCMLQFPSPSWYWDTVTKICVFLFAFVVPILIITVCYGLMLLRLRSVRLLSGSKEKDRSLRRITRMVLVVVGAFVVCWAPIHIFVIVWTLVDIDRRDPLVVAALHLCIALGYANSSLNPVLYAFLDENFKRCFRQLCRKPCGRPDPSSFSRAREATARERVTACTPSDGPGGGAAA
Chain of kappa opioid receptor (KOR) (P41145 whole entry): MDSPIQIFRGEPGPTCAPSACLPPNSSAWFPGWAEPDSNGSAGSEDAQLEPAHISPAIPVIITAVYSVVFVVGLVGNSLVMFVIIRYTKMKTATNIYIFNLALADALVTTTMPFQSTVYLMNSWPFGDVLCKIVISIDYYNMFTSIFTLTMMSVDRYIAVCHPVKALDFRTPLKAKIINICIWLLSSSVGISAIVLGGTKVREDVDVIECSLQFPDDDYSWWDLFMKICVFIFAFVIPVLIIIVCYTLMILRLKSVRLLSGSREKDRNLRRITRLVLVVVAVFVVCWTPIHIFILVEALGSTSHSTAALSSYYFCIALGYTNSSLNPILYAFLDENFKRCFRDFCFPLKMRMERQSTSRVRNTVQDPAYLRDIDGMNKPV

With `NC(=O)c1ccc(OC2CCN(Cc3cc4ccccc4[nH]3)CC2)nc1` [Example 8, 6-[1-(1H-Indol-2-ylmethyl)-piperidin-4-yloxy]-nicotinamide], the figures for the antagonist dissociation constant (Kb) (on mu opioid receptor (MOR); in test [1]; in test [2]) were greater than 1.85 µM, 0.937 µM and greater than 7.3 µM, respectively.

As for `NC(=O)c1ccc(OC2CCN(CC3CC3)CC2)nc1` [Example 7, 6-(1-Cyclopropylmethyl-piperidin-4-yloxy)-nicotinamide], the Kb was 1.78 µM on mu opioid receptor (MOR), 1.05 µM in test [1] and greater than 7.3 µM in test [2].

With `NC(=O)c1ccc(OC2CCN(Cc3ccccc3)CC2)cc1` [Example 9, 4-(1-Benzyl-piperidin-4-yloxy)-benzamide], the results for the antagonist dissociation constant (Kb) (on mu opioid receptor (MOR); in test [1]; in test [2]) were 1.12 µM, 0.93 µM and greater than 7.3 µM, respectively.

In the case of `NC(=O)c1ccc(OC2CCN(CCCc3ccccc3)CC2)cc1` [Example 10, 4-[1-(3-Phenyl-propyl)-piperidin-4-yloxy]-benzamide], the Kb at mu opioid receptor (MOR) came to 0.453 µM; in test [1] it was 0.999 µM; in test [2] it was 1.96 µM.

On to `NC(=O)c1ccc(OC2CCC(NCCC3CCOCC3)CC2)nc1` (racemic) [Example 1, ±6-{4-[2-(Tetrahydro-pyran-4-yl)-ethylamino]-cyclohexyloxy}-nicotinamide], for which the Kb at mu opioid receptor (MOR) came to 0.566 µM; in test [1], 0.601 µM; in test [2] it was 0.819 µM.

Regarding `CC(C)CCNC1CCC(Oc2ccc(C(N)=O)cn2)CC1` (racemic) [Example 2, ±6-[4-(3-Methyl-butylamino)-cyclohexyloxy]-nicotinamide], the results for the antagonist equilibrium constant (Kb) (at mu opioid receptor (MOR); in test [1]; in test [2]) were 0.594 µM, 0.62 µM and 0.996 µM, respectively.

As to `NC(=O)c1ccc(OC2CCN(Cc3ccccn3)CC2)nc1` [Example 6, 6-(1-Pyridin-2-ylmethyl-piperidin-4-yloxy)-nicotinamide], the antagonist dissociation constant (Kb) at mu opioid receptor (MOR) was greater than 1.8 µM; in test [1] it was 0.43 µM; in test [2], greater than 7.3 µM.
